For data set [1], the target named is T1, β-glucosidase/β-galactosidase from Agrobacterium sp. (Abg, GH1) (Agrobacterium sp., UniProt P12614).
T1 sequence (P12614 1-459): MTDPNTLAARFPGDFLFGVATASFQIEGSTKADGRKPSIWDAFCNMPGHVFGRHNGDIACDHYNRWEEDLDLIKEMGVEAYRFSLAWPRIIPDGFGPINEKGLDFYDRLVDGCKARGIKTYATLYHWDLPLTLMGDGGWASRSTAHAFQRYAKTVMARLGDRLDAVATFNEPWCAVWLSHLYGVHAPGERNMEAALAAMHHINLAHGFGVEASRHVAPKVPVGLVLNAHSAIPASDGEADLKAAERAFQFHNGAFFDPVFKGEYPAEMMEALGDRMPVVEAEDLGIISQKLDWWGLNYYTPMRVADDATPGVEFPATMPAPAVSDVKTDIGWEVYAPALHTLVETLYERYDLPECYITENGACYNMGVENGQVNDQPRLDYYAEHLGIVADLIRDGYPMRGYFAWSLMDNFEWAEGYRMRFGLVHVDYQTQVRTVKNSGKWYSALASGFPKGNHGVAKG
The settings on record: read-out: Ki Abg (β-Glc/Gal) (GH1); cited from earlier work.

Data set [2] concerns the target T2, Fabrazyme = commercial recombinant lysosomal α-galactosidase (GH27) (Homo sapiens, UniProt P06280).
T2 construct: purchased
T2 sequence (P06280 32-429): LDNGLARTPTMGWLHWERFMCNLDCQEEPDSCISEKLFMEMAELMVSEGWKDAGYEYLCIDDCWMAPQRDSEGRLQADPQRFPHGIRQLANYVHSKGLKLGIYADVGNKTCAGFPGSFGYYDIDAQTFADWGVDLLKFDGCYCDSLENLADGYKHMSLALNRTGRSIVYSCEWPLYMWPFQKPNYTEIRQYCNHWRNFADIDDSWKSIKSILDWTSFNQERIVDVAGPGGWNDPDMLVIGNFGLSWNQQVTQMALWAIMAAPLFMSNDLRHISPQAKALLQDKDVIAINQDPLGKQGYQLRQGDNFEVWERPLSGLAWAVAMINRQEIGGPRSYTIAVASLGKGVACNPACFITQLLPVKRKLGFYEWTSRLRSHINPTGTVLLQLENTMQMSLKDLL
The conditions noted are these: read-out: Ki Fabrazyme (α-Gal) (GH27); cited from earlier work.

The target in data set [3] is T3, human lysosomal acid β-galactosidase (GH35) (Homo sapiens, UniProt P16278).
T3 construct: Activity was measured in normal fibroblasts; endogenous in cells; host or cells: normal human skin fibroblasts (homogenate)
T3 sequence (P16278 29-677): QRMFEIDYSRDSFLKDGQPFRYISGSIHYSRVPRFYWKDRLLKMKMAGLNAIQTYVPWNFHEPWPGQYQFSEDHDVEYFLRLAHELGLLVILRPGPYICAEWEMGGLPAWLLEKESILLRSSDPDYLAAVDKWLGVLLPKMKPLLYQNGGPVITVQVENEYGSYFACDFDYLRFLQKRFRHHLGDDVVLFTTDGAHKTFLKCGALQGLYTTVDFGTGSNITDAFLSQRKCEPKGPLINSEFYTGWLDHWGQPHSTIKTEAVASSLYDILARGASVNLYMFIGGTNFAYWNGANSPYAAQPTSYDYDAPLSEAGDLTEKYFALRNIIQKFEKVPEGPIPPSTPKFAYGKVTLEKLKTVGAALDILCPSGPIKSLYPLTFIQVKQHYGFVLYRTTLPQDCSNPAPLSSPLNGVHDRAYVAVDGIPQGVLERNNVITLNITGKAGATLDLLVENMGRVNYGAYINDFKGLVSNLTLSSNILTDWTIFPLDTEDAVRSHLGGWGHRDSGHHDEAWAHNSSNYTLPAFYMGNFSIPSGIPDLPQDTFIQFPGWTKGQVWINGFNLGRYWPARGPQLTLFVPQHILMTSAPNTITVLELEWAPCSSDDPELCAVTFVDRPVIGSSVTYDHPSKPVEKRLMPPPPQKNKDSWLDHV
The conditions noted are these: read-out: β-Gal human lys. (GH35); cited from earlier work.

In data set [4] the test system is human skin fibroblasts (R201C). The data set can be described thus: Cell viability and growth of treated fibroblasts. It is filed as cell-based. The settings on record: for cell growth at higher concentrations: concentrations higher than 10 µM, over the incubation time; for cell viability at more than 100 µM: concentrations of more than 100 µM; for influence on cell viability: incubation of the cells up to 10 µM. The procedure: Cell lines from one GM1-Gangliosidosis-patient (R201C) and one WT, were exposed to compounds 22, 31, and 37, for evaluation of their chaperone effects.
Human skin fibroblasts were grown in minimal essential medium (MEM) with Earle’s Salts (Sigma Aldrich, St. Louis, MO, USA) containing 10% fetal bovine serum, 400 µM L-glutamine, and 50 µg/mL gentamycin at 37 °C and 5% CO2. All cells used in this study were between the third and nineteenth passages.
Fibroblasts were grown to semi-confluency in 6-well plates. Particular chaperone was added to the culture medium at following concentrations: 100–0.02 µmol. Cells were incubated for four additional days at 37 °C. Cells were harvested by scraping and prepared for β-galactosidase and β-hexosaminidase assays as described above.

Structures are written as SMILES.

On to `CN(C)c1cccc2c(S(=O)(=O)NCCCCCC[C@@H]3NC[C@@H](O)[C@@H](O)[C@H]3CO)cccc12` [Compound 14], for which the Ki in data set [1] is 0.0175 µM; in data set [2], over 1000 µM. In data set [3], the IC50 was 0.38 µM.

Regarding `CN(C)c1cccc2c(S(=O)(=O)NCCCCCCN[C@H]3C[C@@H](O)[C@@H](O)[C@H]3CO)cccc12` [Compound 31, (1R,2S,3R,4S)-3-Hydroxymethyl-4-(6′-dansylaminohexylamino)cyclopentane-1,2-diol], in data set [4], the “cell growth at higher concentrations” value is given as “complete arrest of cell growth”, the “cell viability at more than 100 µM” value is on record as “dramatic loss” and the “influence on cell viability” value was “no notable influence”.

As for `CN(C)c1cccc2c(S(=O)(=O)NCCCCCCN[C@H]3[C@H](O)[C@@H](O)[C@@H](O)[C@H]3CO)cccc12` [Compound 17], the values for the Ki in data set [1] and in data set [2] were 0.0012 µM and 238 µM, respectively. Further, the IC50 in data set [3] is 0.4 µM.

On to `CN(C)c1cccc2c(S(=O)(=O)NCCCCCCN[C@H]3[C@H](F)[C@@H](O)[C@@H](O)[C@H]3CO)cccc12` [Compound 37, (1S,2S,3S,4R,5R)-4-(6′-Dansylaminohexyl)amino-3-fluoro-5-hydroxymethylcyclopentane-1,2-diol], for which, in data set [4], the “cell growth at higher concentrations” value is reported as “complete arrest of cell growth”, the “cell viability at more than 100 µM” value is recorded as “dramatic loss” and the “influence on cell viability” value is “no notable influence”.

(Values after publication PMC7504770, “Mechanistic Insights into the Chaperoning of Human Lysosomal-Galactosidase Activity: Highly Functionalized Aminocyclopentanes and C-5a-Substituted Derivatives of 4-epi-Isofagomine” (Molecules, 2020).)
